# Tests used:
# Assay type in all cases: functional
# [1] = system: Mus musculus; test: Analgesic activity in ICR mouse assessed as pain threshold variation at 25 umol/kg, po administered as single dose measured after 180 mins by tail flick test relative to control
# [2] = system: Mus musculus; test: Analgesic activity in ICR mouse assessed as pain threshold variation at 25 umol/kg, po administered as single dose measured after 150 mins by tail flick test relative to control
# [3] = system: Mus musculus; test: Analgesic activity in ICR mouse assessed as pain threshold variation at 25 umol/kg, po administered as single dose measured after 30 mins by tail flick test relative to control
# [4] = system: Mus musculus; test: Analgesic activity in ICR mouse assessed as pain threshold variation at 25 umol/kg, po administered as single dose measured after 120 mins by tail flick test relative to control
# [5] = system: Mus musculus; test: Analgesic activity in ICR mouse assessed as pain threshold variation at 25 umol/kg, po administered as single dose measured after 90 mins by tail flick test relative to control
# [6] = system: Mus musculus; test: Analgesic activity in ICR mouse assessed as pain threshold variation at 25 umol/kg, po administered as single dose measured after 60 mins by tail flick test relative to control
SMILES,Activity [1] [%],Activity [2] [%],Activity [3] [%],Activity [4] [%],Activity [5] [%],Activity [6] [%]
C[C@H](NC(=O)CN(c1nc(Cl)nc2[nH]cnc12)C1CC1)C(=O)O,6.68,14.68,48.1,28.41,43.53,44.64
CC[C@H](C)[C@H](NC(=O)CN(c1nc(Cl)nc2[nH]cnc12)C1CC1)C(=O)O,3.9,6.71,30.34,21.42,27.39,35.97
O=C(CN(c1ncnc2c1ncn2C1CCCCO1)C1CC1)NCC(=O)OCc1ccccc1 (centres undefined),0.06,7.26,55.72,17.23,25.94,40.44
CSCC[C@H](NC(=O)CN(c1ncnc2c1ncn2C1CCCCO1)C1CC1)C(=O)OCc1ccccc1 (some centres undefined),12.89,17.47,30.04,28.66,42.7,40.97
O=C(CN(c1nc(Cl)nc2[nH]cnc12)C1CC1)N[C@@H](Cc1ccc(O)cc1)C(=O)O,8.15,13.71,46.22,23.69,33.92,43.23
NC(=O)C[C@H](NC(=O)CN(c1ncnc2c1ncn2C1CCCCO1)C1CC1)C(=O)OCc1ccccc1 (some centres undefined),15.45,21.71,34.53,29.15,34.95,30.54
O=C(CN(c1ncnc2c1ncn2C1CCCCO1)C1CC1)N[C@@H](CC(=O)OCc1ccccc1)C(=O)OCc1ccccc1 (some centres undefined),0.03,0.06,31.81,7.82,25.07,38.15
O=C(O)C[C@H](NC(=O)CN(c1nc(Cl)nc2[nH]cnc12)C1CC1)C(=O)O,3.17,11.63,19.85,21.95,25.14,38.9
O=C(O)CNC(=O)CN(c1nc(Cl)nc2[nH]cnc12)C1CC1,8.11,9.08,32.16,19.81,32.31,38.89
C[C@@H](O)[C@H](NC(=O)CN(c1nc(Cl)nc2[nH]cnc12)C1CC1)C(=O)O,4.69,24.02,18.59,37.59,35.87,30.07
N=C(N)NCCC[C@H](NC(=O)CN(c1nc(Cl)nc2[nH]cnc12)C1CC1)C(=O)OCc1ccccc1,1.78,6.12,23.19,10.24,30.44,30.57
O=C(CN(c1ncnc2c1ncn2C1CCCCO1)C1CC1)N[C@@H](CO)C(=O)OCc1ccccc1 (some centres undefined),12.85,18.32,27.77,29.2,32.17,46.71
C[C@@H](O)[C@H](NC(=O)CN(c1nc(Cl)nc2[nH]cnc12)C1CC1)C(=O)OCc1ccccc1,6.29,12.76,21.86,30.7,29.88,29.7
CSCC[C@H](NC(=O)CN(c1nc(Cl)nc2[nH]cnc12)C1CC1)C(=O)OCc1ccccc1,10.66,17.64,22.22,31.55,44.55,30.76

# — ChEMBL document CHEMBL1152546, “N-[2-chloro-9H-purin-6-yl]-N-cyclopropylglycylamino acids and derivatives: synthesis, evaluation as a class of novel analgesics, and 3D QSAR analysis” (2009)
